Where a name gives a salt, the structure may show the parent alone.
What was measured:
[1] = system: learned helplessness model in rats; experiment: Activity in Learned Helplessness (LH) Model; format: in vivo, rat (male SD); conditions: 5.0 mg/kg po, electric shock (IES) loaded, Average % ± SE
Procedure: Activity in Learned Helplessness (LH) Model
As experimental animals, 10 to 15 animals per group of SD male rats (220 to 320 g in body weight, 7 week age, Charles River Japan, Atsugi) were used. During the preliminary feeding period, they were allowed to have feed (CRF-1, Oriental Yeast, Tokyo) and water (tap water) freely in an animal room at a room temperature of 22 to 24° C. and a humidity of 50 to 60%. The test compound was orally administered in a dose of 2 ml/kg and 1 hour before FR 1 (fixed ratio schedule 1: repetition of fixed trial conditions) on the second day of the test.
2) Preparation of Learned Helplessness Model
A shuttle box apparatus (TK-401S; manufactured by UNICOM, Chiba) was used as the learning test apparatus. […]
On the second day, a shuttle box test was carried out by slightly modifying the method of Maier et al. [J. Comp. […] The escape reaction was judged success when both of the two escape times in FR 2 were less than 10 seconds, and the escape response was calculated by the following formula: "the number of trials of successful escape/15×100=escape response (%)" Further, migration in the box other than the escape reaction observed during a period between trials (resting time) was used as an index of psychomotor stimulant action by calculating "total number of migration in the box/15×100=intertrial response (%)" […]

[2] = target: T1, adenosine A2A receptor (Rattus norvegicus, UniProt P30543); experiment: Adenosine receptor binding activity (adenosine A2A receptor binding test), 3H-CGS 21680 binding; conditions: 2 h, read-out: A2A receptor inhibition ratio (%); for inhibition at 0.1 µM: 10^-7 M
T1 construct: from tissue; host or cells: rat corpus striatum, washed membrane suspension
Procedure, shortened: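 Rat corpus striatum membranes (5 mg wet tissue/mL in 50 mM Tris-HCl pH 7.7, 10 mM MgCl2, adenosine deaminase) incubated with 4.0 nM 3H-CGS 21680 and test compound for 120 min at 25 °C, then filtered and counted. Nonspecific binding defined with 100 μM CPA; % inhibition of specific binding calculated.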

[3] = system: common marmoset MPTP-treated Parkinson's disease model; experiment: Activity in a Parkinson's Disease Model (common marmoset treated with MPTP); format: in vivo
[4] = system: CGS 21680-induced catalepsy in mice; experiment: Activity on CGS 21680-induced Catalepsy; format: in vivo, mouse (male ddY); conditions: 10 mg/kg oral; for Total score (catalepsy): 10 animals, maximum 50 points, control 48; for Number of Animals showing remission: catalepsy score 4 points or less in 10 cases; for inhibition in vivo at 10 mg/kg: Mus musculus, CGS 21680-induced catalepsy, read-out: Remission ratio (%)
Procedure, shortened: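 Male ddY mice (5 weeks, 10 per group) received CGS 21680 10 μg/20 μl intracerebroventricularly; test compounds given orally at 10 mg/kg in 0.3% Tween 80 suspension. Catalepsy scored 1 h after dosing on a 4.5 cm bar; total group score (maximum 50) compared with control; ≤4 per animal counted as remission.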

[5] = system: immobility time in forced swimming of mice; experiment: Forced Swimming Method (measurement of immobility time); format: in vivo, mouse (male ddY); conditions: 10 mg/kg oral, Steel-test vs solvent control
Procedure: Forced Swimming Method (measurement of immobility time)
Ten animals per group of ddY male mice (21 to 26 g in body weight, Japan SLC) were used as the experimental animal. During the preliminary feeding period, they were allowed to have feed and water freely in an animal room of a room temperature of 23±1° C. and a humidity of 55±5%. […] The drugs to be tested were suspended in a 0.3% Tween 80 solution and orally administered one hour before the test. In the negative control group, 10 ml/kg of the 0.3% Tween 80 solution alone was orally administered. Measurement of immobility time was carried out in accordance with the method of Porsolt [Arch. int Pharmacodyn., 229: 327-336 (1977)]. That is, a cylindrical transparent acrylic water tank (10 cm in diameter and 25 cm in height) was filled with 9 cm in depth of water having a temperature of 23±1° C., and mice were forced to swim for 6 minutes. When mice are put into water, they immediately start to swim trying to escape from the tank, but the motion gradually decreases 1 to 2 minutes thereafter. […] In order to reduce effects of daily rhythm, the test was carried out by using 5 of the 10 animals per group in the morning, and the remaining 5 animals in the afternoon. Further, measurement of immobility time was carried out by observing 2 animals at the same time and by not telling the observers distinctions about the solvent-administered group and doses of administered test drugs. Statistical analysis of the results was carried out by a multiple comparison test of the solvent-administered control group and each of the test drug-administered groups by Steel-test.

T1 sequence (P30543 whole entry): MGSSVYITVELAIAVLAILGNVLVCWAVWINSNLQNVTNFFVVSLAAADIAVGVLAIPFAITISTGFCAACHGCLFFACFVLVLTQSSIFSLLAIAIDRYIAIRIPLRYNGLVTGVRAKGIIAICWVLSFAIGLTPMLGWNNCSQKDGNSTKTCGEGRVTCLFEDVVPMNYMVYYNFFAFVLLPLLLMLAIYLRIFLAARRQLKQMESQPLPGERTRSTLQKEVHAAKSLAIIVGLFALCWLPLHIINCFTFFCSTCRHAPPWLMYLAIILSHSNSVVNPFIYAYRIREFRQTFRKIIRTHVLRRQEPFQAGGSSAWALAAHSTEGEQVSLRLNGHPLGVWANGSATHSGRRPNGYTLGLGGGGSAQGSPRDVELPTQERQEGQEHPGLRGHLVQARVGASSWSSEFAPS

inhibition at 0.1 µM [2]	inhibition at 0.01 µM ([2]; 10^-8 M)	Structure (SMILES)	Intertrial response [1]	Escape response ([1]; **: p < 0.01 vs loaded control)	Total spontaneous motor count ([3]; FIG. 2, common marmoset treated with MPTP)	Efficacy in the common marmoset MPTP-treated Parkinson's disease model ([3]; total Parkinson's disease symptom score and locomotor count vs vehicle)	Total score (catalepsy) [4]	Number of Animals showing remission [4]	inhibition in vivo at 10 mg/kg [4]	Immobility time-shortening activity [5]
		Nc1nc(N2CCN(C(=O)c3ccccc3)CC2)cc2nc(-c3ccco3)nn12 [Compound 45, 5-Amino-7-(4-benzoylpiperazinyl)-2-(2-furyl)[1,2,4]triazolo[1,5-c]pyrimidine]	6.7 ± 3.8%	64 ± 9.8%						
82%	31%	Nc1nc(N2CCN(CCCc3ccccc3)CC2)cc2nc(-c3ccco3)nn12 [Compound 63, 5-Amino-2-(2-furyl)-7-[4-(3-phenylpropyl)piperazinyl][1,2,4]triazolor[1,5-c]pyrimidine]			increase	effective	7	10	84%	
57%		Nc1nc(N2CCN(C/C=C/c3ccccc3)CC2)cc2nc(-c3ccco3)nn12 [Compound 88, 5-Amino-7-(4-trans-cinnamylpiperazinyl)-2-(2-furyl)[1,2,4]triazolo[1,5-c]pyrimidine]					0	10	98%	Significant immobility time-shortening activity was observed
52%		Nc1nc(N2CCN(CC#Cc3ccccc3)CC2)cc2nc(-c3ccco3)nn12 [Compound 89, 5-Amino-2-(2-furyl)-7-(4-(3-phenylpropargyl)piperazinyl)[1,2,4]triazolo[1,5-c]pyrimidine hydrochloride]					15	10	68%	Significant immobility time-shortening activity was observed
103%		CC(C)NC(=O)c1cnc(N)n2nc(-c3ccco3)nc12 [Compound 165, 5-Amino-2-(2-furyl)-8-isopropylcarbamoyl[1,2,4]triazolo[1,5-c]pyrimidine]					13	9	74%	Significant immobility time-shortening activity was observed
90%		CNC(=O)c1cnc(N)n2nc(-c3ccco3)nc12 [Compound 167, 5-Amino-2-(2-furyl)-8-methylcarbamoyl[1,2,4]triazolo[1,5-c]pyrimidine]					9	10	82%	Significant immobility time-shortening activity was observed

Reference: US6222035A, “[1,2,4] triazolo [1,5-C] pyrimidine derivatives” (Kyowa Hakko Kogyo Co., Ltd., priority 1997, dated 2001)
